From patent US20220388953A1, “COMPOUNDS WITH ANTIMICROBIAL ACTIVITY” (The Hong Kong Polytechnic University, priority 2018, published 2022)
≈ marks a conversion by molar mass, not a printed value.

system: Streptococcus pneumoniae (Klein) Chester (ATCC 49619); test: Antimicrobial assay, broth microdilution (CLSI), MIC; type: cell-based; details: ATCC49619; Table 1; Streptococcus pneumoniae ATCC 49619; 20 h at 37° C.; read-out: MIC
Method: C3 derivatives were synthesized and antimicrobial activity measured against Streptococcus pneumoniae (MIC, minimum inhibitory concentration).
Bacterial Strains was used in this study is Streptococcus pneumoniae (Klein) Chester (ATCC® 49619™)
The antimicrobial activity of the compounds was determined by broth microdilution according to the Clinical & Laboratory Standards Institute (CLSI) guidelines. The test medium was cation-adjusted Mueller-Hinton broth (MH). Serial two-fold dilutions were performed for the tested chemicals starting from 256 μg/mL to 0.5 μg/mL, and the bacterial cell inoculum was adjusted to approximately 5×10^5 CFU/mL. Results were taken after 20 h of incubation at 37° C. The MIC was defined as the lowest concentration of antibiotic with no visible growth. Experiments were performed in duplicates.

| MIC | SMILES |
| --- | --- |
| 128 µg/mL (≈ 313 µM) | COc1ccccc1Sc1ccc(C(=O)c2ccccc2C(=O)O)cc1[N+](=O)[O-] [C3-2, 2-(4-((2-Methoxyphenyl)thio)-3-nitrobenzoyl)benzoic Acid] |
| 128 µg/mL (≈ 322 µM) | O=C(O)c1ccccc1C(=O)c1ccc(Sc2ccccc2F)c([N+](=O)[O-])c1 [C3-3, 2-(4-((2-Fluorophenyl)thio)-3-nitrobenzoyl)benzoic Acid] |
| > 256 µg/mL | O=C(O)c1ccccc1C(=O)c1ccc(Sc2ccccn2)c([N+](=O)[O-])c1 [C3-4, 2-(3-Nitro-4-(pyridin-2-ylthio)benzoyl)benzoic Acid] |
| 32 µg/mL (≈ 73.3 µM) | CC(C)Nc1cccc(Sc2ccc(C(=O)c3ccccc3C(=O)O)cc2[N+](=O)[O-])c1 [C3-7, 2-(4-((3-(Isopropylamino)phenyl)thio)-3-nitrobenzoyl)benzoic Acid] |
| 256 µg/mL (≈ 668 µM) | NC1CCCCC1Nc1ccc(C(=O)c2ccccc2C(=O)O)cc1[N+](=O)[O-] (stereo not drawn) [C3-28, 2-(4-((2-Aminocyclohexyl)amino)-3-nitrobenzoyl)benzoic Acid] |

same assay, conditions: ATCC49619; Table 3; Streptococcus pneumoniae ATCC 49619; 20 h at 37° C.; read-out: MIC

| MIC | SMILES |
| --- | --- |
| 32 µg/mL (≈ 81.3 µM) | Nc1ccccc1Sc1ccc(C2(O)NC(=O)c3ccccc32)cc1[N+](=O)[O-] (stereo not drawn) [C3-39] |
| 32 µg/mL (≈ 62.4 µM) | NC(=O)c1cccc(N2C(=O)c3ccccc3C2(O)c2ccc(Sc3ccccc3N)c([N+](=O)[O-])c2)c1 (stereo not drawn) [C3-42] |
| > 256 µg/mL | CC(C)(C)c1cccc(N2C(=O)c3ccccc3C2(O)c2ccc(Sc3ccccc3N)c([N+](=O)[O-])c2)c1 (stereo not drawn) [C3-44] |
| > 256 µg/mL | Cc1cccc(N2C(=O)c3ccccc3C2(O)c2ccc(Sc3ccccc3N)c([N+](=O)[O-])c2)c1 (stereo not drawn) [C3-45] |
| > 256 µg/mL | Nc1ccccc1Sc1ccc(C2(O)c3ccccc3C(=O)N2Cc2ccccc2)cc1[N+](=O)[O-] (stereo not drawn) [C3-47] |
| > 256 µg/mL | Nc1ccccc1Sc1ccc(C2(O)c3ccccc3C(=O)N2Cc2ccccc2F)cc1[N+](=O)[O-] (stereo not drawn) [C3-48] |

same assay, conditions: Streptococcus pneumoniae, ATCC49619, 20 h

| SMILES | MIC |
| --- | --- |
| Nc1cccc(Sc2ccc(C(=O)c3ccccc3C(=O)O)cc2[N+](=O)[O-])c1 [C3-5, 2-(4-((3-Aminophenyl)thio)-3-nitrobenzoyl)benzoic Acid] | 64 µg/mL (≈ 162 µM) |
| Nc1ccc(Sc2ccc(C(=O)c3ccccc3C(=O)O)cc2[N+](=O)[O-])cc1 [C3-6, 2-(4-((4-Aminophenyl)thio)-3-nitrobenzoyl)benzoic Acid] | 128 µg/mL (≈ 325 µM) |
| Nc1cc(Cl)ccc1Sc1ccc(C(=O)c2ccccc2C(=O)O)cc1[N+](=O)[O-] [C3-10, 2-(4-((2-Amino-4-chlorophenyl)thio)-3-nitrobenzoyl)benzoic Acid] | 64 µg/mL (≈ 149 µM) |
| O=C(O)c1ccccc1C(=O)c1ccc(Sc2ccc(Cl)c(Cl)c2)c([N+](=O)[O-])c1 [C3-13, 2-(4-((3,4-Dichlorophenyl)thio)-3-nitrobenzoyl)benzoic Acid] | 8 µg/mL (≈ 17.8 µM) |
| Nc1ccccc1Sc1ccc(C2(O)c3ccccc3C(=O)N2c2ccccc2)cc1[N+](=O)[O-] (stereo not drawn) [C3-41] | > 256 µg/mL |
| Nc1ccccc1Sc1ccc(C2(O)c3ccccc3C(=O)N2c2cccc(C(=O)O)c2)cc1[N+](=O)[O-] (stereo not drawn) [C3-43] | 64 µg/mL (≈ 125 µM) |
| Nc1ccccc1Sc1ccc(C2(O)c3ccccc3C(=O)N2c2cccc(Cl)c2)cc1[N+](=O)[O-] (stereo not drawn) [C3-46] | > 256 µg/mL |

system: not given; test: not given; details: not given

| SMILES | melting point |
| --- | --- |
| O=C(O)c1ccccc1C(=O)c1ccc(Nc2cccc(Cl)c2)c([N+](=O)[O-])c1 | 159 to 161 °C |
| COc1ccccc1Sc1ccc(C(=O)c2ccccc2C(=O)O)cc1[N+](=O)[O-] [C3-2, 2-(4-((2-Methoxyphenyl)thio)-3-nitrobenzoyl)benzoic Acid] | 209 to 211 °C |
| O=C(O)c1ccccc1C(=O)c1ccc(Sc2ccccc2F)c([N+](=O)[O-])c1 [C3-3, 2-(4-((2-Fluorophenyl)thio)-3-nitrobenzoyl)benzoic Acid] | 175 to 176 °C |
| O=C(O)c1ccccc1C(=O)c1ccc(Sc2ccccn2)c([N+](=O)[O-])c1 [C3-4, 2-(3-Nitro-4-(pyridin-2-ylthio)benzoyl)benzoic Acid] | 205 to 206 °C |
| CC(C)Nc1cccc(Sc2ccc(C(=O)c3ccccc3C(=O)O)cc2[N+](=O)[O-])c1 [C3-7, 2-(4-((3-(Isopropylamino)phenyl)thio)-3-nitrobenzoyl)benzoic Acid] | 130 to 132 °C |
| Nc1ccccc1Sc1ccc(C(=O)Nc2cccc(C(=O)O)c2)cc1[N+](=O)[O-] [C3-026, 3-(4-((2-Aminophenyl)thio)-3-nitrobenzamido)benzoic Acid] | 251 to 252 °C |
| Nc1ccccc1Sc1ccc(CNc2cccc(C(=O)O)c2)cc1[N+](=O)[O-] [C3-027, 3-((4-((2-Aminophenyl)thio)-3-nitrobenzyl)amino)benzoic Acid] | 105 to 107 °C |
| Nc1ccccc1Sc1ccc(C(=O)Nc2ccc(C(=O)O)cc2)cc1[N+](=O)[O-] [C3-056, 4-(4-((2-Aminophenyl)thio)-3-nitrobenzamido)benzoic Acid] | 247 to 249 °C |
| Nc1ccccc1Sc1ccc(C(=O)Nc2ccccc2C(=O)O)cc1[N+](=O)[O-] [C3-057, 2-(4-((2-Aminophenyl)thio)-3-nitrobenzamido)benzoic Acid] | 259 to 261 °C |
| Nc1ccccc1Sc1ccc(CNc2ccccc2C(=O)O)cc1[N+](=O)[O-] [C3-065, 2-((4-((2-Aminophenyl)thio)-3-nitrobenzyl)amino)benzoic Acid] | 201 to 203 °C |
| O=C(O)c1ccc(N2CCOCC2)c(NCc2ccc(Sc3ccc(Cl)c(Cl)c3)c([N+](=O)[O-])c2)c1 [C3-073, 3-((4-((3,4-Dichlorophenyl)thio)-3-nitrobenzyl)amino)-4-morpholinobenzoic Acid] | 147 to 149 °C |
| O=C(Nc1ccccc1C(=O)O)c1ccc(Sc2ccc(Cl)c(Cl)c2)c([N+](=O)[O-])c1 [C3-077, 2-(4-((3,4-Dichlorophenyl)thio)-3-nitrobenzamido)benzoic Acid] | 279 to 281 °C |
| O=C(O)c1ccccc1C(=O)c1ccc(Sc2ccc(Cl)c(Cl)c2)cc1 [C3-083, 2-(4-((3,4-Dichlorophenyl)thio)benzoyl)benzoic Acid] | 164 to 166 °C |
| Nc1cc(C(=O)c2ccccc2C(=O)O)ccc1Sc1ccc(Cl)c(Cl)c1 [C3-094, 2-(3-Amino-4-((3,4-dichlorophenyl)thio)benzoyl)benzoic Acid] | 188 to 190 °C |
| CN(C)c1cc(C(=O)c2ccccc2C(=O)O)ccc1Sc1ccc(Cl)c(Cl)c1 [C3-095, 2-(4-((3,4-Dichlorophenyl)thio)-3-(dimethylamino)benzoyl)benzoic Acid] | 144 to 146 °C |

The next lines start with the values.

| melting point | SMILES |
| --- | --- |
| 224 to 226 °C | O=C(O)c1cccc(NCc2ccc(Sc3ccc(Cl)c(Cl)c3)c([N+](=O)[O-])c2)c1 [C3-047, 3-((4-((3,4-Dichlorophenyl)thio)-3-nitrobenzyl)amino)benzoic Acid] |
| 280 to 282 °C | O=C(O)c1cccc(NC(=O)c2ccc(Sc3ccc(Cl)c(Cl)c3)c([N+](=O)[O-])c2)c1 [C3-048, 3-(4-((3,4-Dichlorophenyl)thio)-3-nitrobenzamido)benzoic Acid] |
| 158 to 160 °C | NC(=O)c1cccc(NCc2ccc(Sc3ccc(Cl)c(Cl)c3)c([N+](=O)[O-])c2)c1 [C3-066, 3-((4-((3,4-Dichlorophenyl)thio)-3-nitrobenzyl)amino)benzamide] |
| 196 to 198 °C | O=C(O)c1ccc(Cl)c(NCc2ccc(Sc3ccc(Cl)c(Cl)c3)c([N+](=O)[O-])c2)c1 [C3-071, 4-Chloro-3-((4-((3,4-dichlorophenyl)thio)-3-nitrobenzyl)amino)benzoic Acid] |
| 191 to 193 °C | NS(=O)(=O)c1cccc(NCc2ccc(Sc3ccc(Cl)c(Cl)c3)c([N+](=O)[O-])c2)c1 [C3-074, 3-((4-((3,4-Dichlorophenyl)thio)-3-nitrobenzyl)amino)benzenesulfonamide] |
| 222 to 224 °C | Cc1ccc(C(=O)O)cc1NCc1ccc(Sc2ccc(Cl)c(Cl)c2)c([N+](=O)[O-])c1 [C3-075, 3-((4-((3,4-Dichlorophenyl)thio)-3-nitrobenzyl)amino)-4-methylbenzoic Acid] |
| 231 to 233 °C | O=C(O)c1ccc(Br)c(NCc2ccc(Sc3ccc(Cl)c(Cl)c3)c([N+](=O)[O-])c2)c1 [C3-078, 4-Bromo-3-((4-((3,4-dichlorophenyl)thio)-3-nitrobenzyl)amino)benzoic Acid] |
| 148 to 150 °C | O=C(O)c1cc(NCc2ccc(Sc3ccc(Cl)c(Cl)c3)c([N+](=O)[O-])c2)ccc1Cl [C3-079, 2-Chloro-5-((4-((3,4-dichlorophenyl)thio)-3-nitrobenzyl)amino)benzoic Acid] |
| 118 to 120 °C | O=[N+]([O-])c1cc(CNc2cccc(CO)c2)ccc1Sc1ccc(Cl)c(Cl)c1 [C3-080, (3-((4-((3,4-Dichlorophenyl)thio)-3-nitrobenzyl)amino)phenyl)methanol] |
| 171 to 173 °C | O=C(O)c1ccccc1NCc1ccc(Sc2ccc(Cl)c(Cl)c2)c([N+](=O)[O-])c1 [C3-081, 2-((4-((3,4-Dichlorophenyl)thio)-3-nitrobenzyl)amino)benzoic Acid] |
| 237 to 239 °C | O=C(O)c1ccc(F)c(NCc2ccc(Sc3ccc(Cl)c(Cl)c3)c([N+](=O)[O-])c2)c1 [C3-082, 3-((4-((3,4-Dichlorophenyl)thio)-3-nitrobenzyl)amino)-4-fluorobenzoic Acid] |
| 220 to 222 °C | O=C(O)c1ccc(Cl)cc1NCc1ccc(Sc2ccc(Cl)c(Cl)c2)c([N+](=O)[O-])c1 [C3-087, 4-Chloro-2-((4-((3,4-dichlorophenyl)thio)-3-nitrobenzyl)amino)benzoic Acid] |
| 204 to 206 °C | O=C(O)c1c(Cl)cccc1NCc1ccc(Sc2ccc(Cl)c(Cl)c2)c([N+](=O)[O-])c1 [C3-088, 2-Chloro-6-((4-((3,4-Dichlorophenyl)thio)-3-nitrobenzyl)amino)benzoic Acid] |
| 184 to 186 °C | NC(=O)c1ccccc1NCc1ccc(Sc2ccc(Cl)c(Cl)c2)c([N+](=O)[O-])c1 [C3-090, 2-((4-((3,4-Dichlorophenyl)thio)-3-nitrobenzyl)amino)benzamide] |
| 173 to 175 °C | N#Cc1ccccc1NCc1ccc(Sc2ccc(Cl)c(Cl)c2)c([N+](=O)[O-])c1 [C3-091, 2-((4-((3,4-Dichlorophenyl)thio)-3-nitrobenzyl)amino)benzonitrile] |
